Test results reported in PubChem BioAssay AID2060508 (Molecular Pharmacology Branch, DTP, NCI, 2025).
Each block holds one molecule with its values, some of them ahead of it.

Test system: 454973-116-R2-J3-PDC spheroids, viability, % test/control
Assay: Anticancer human tumor 454973-116-R2-J3-PDC patient-derived pancreatic carcinoma cell line growth inhibition [GQUAD]
Conditions: spheroids with HUVEC and MSC; for IC50: curve of first compound; for viability, T/C: stronger effect = lower value
Method in brief: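 Tumor cells were grown as complex spheroids with HUVEC endothelial cells and mesenchymal stem cells as stroma. G-quadruplex stabilizers were combined with targeted agents over half-log dilutions from near the clinical Cmax, or from 10 microM.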

[1] = second compound 0.0316 µM, first compound 0.0316 µM
[2] = second compound 0.0316 µM, first compound 0.1 µM
[3] = second compound 0.0316 µM, first compound 0.316 µM
[4] = second compound 0.0316 µM, first compound 1 µM
[5] = second compound 0.0316 µM, first compound 3.16 µM
[6] = second compound 0.0316 µM, first compound 10 µM
[7] = second compound 0.1 µM, first compound 0.0316 µM
[8] = second compound 0.1 µM, first compound 0.1 µM
[9] = second compound 0.1 µM, first compound 0.316 µM
[10] = second compound 0.1 µM, first compound 1 µM
[11] = second compound 0.1 µM, first compound 3.16 µM
[12] = second compound 0.1 µM, first compound 10 µM
[13] = second compound 0.316 µM, first compound 0.0316 µM
[14] = second compound 0.316 µM, first compound 0.1 µM
[15] = second compound 0.316 µM, first compound 0.316 µM
[16] = second compound 0.316 µM, first compound 1 µM
[17] = second compound 0.316 µM, first compound 3.16 µM
[18] = second compound 0.316 µM, first compound 10 µM
[19] = second compound 1 µM, first compound 0.0316 µM
[20] = second compound 1 µM, first compound 0.1 µM
[21] = second compound 1 µM, first compound 0.316 µM
[22] = second compound 1 µM, first compound 1 µM
[23] = second compound 1 µM, first compound 3.16 µM
[24] = second compound 1 µM, first compound 10 µM
[25] = second compound 3.16 µM, first compound 0.0316 µM
[26] = second compound 3.16 µM, first compound 0.1 µM
[27] = second compound 3.16 µM, first compound 0.316 µM
[28] = second compound 3.16 µM, first compound 1 µM
[29] = second compound 3.16 µM, first compound 3.16 µM
[30] = second compound 3.16 µM, first compound 10 µM
[31] = second compound 10 µM, first compound 0.0316 µM
[32] = second compound 10 µM, first compound 0.1 µM
[33] = second compound 10 µM, first compound 0.316 µM
[34] = second compound 10 µM, first compound 1 µM
[35] = second compound 10 µM, first compound 3.16 µM
[36] = second compound 10 µM, first compound 10 µM
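Also: spheroids exposed to compounds for seven days.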
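For viability, T/C in this document: 100% = DMSO vehicle control viability.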

IC50 (second compound 0.0316 µM): < 31.6 nM | IC50 (second compound 0.1 µM): < 31.6 nM | IC50 (second compound 0.316 µM): < 31.6 nM | IC50 (second compound 1 µM): < 31.6 nM | IC50 (second compound 3.16 µM): < 31.6 nM | IC50 (second compound 10 µM): < 31.6 nM
SMILES: Nc1ccn(C2OC(CO)C(O)C2(F)F)c(=O)n1 (stereo unspecified) + Cc1cnc(CNC(=O)c2c(=O)c3ccc(N4CCCN(C)CC4)nc3n3c2sc2ccccc23)cn1
viability, T/C [1]: 18.9% | viability, T/C [2]: 15.8% | viability, T/C [3]: 17.5% | viability, T/C [4]: 16.6% | viability, T/C [5]: 14.2% | viability, T/C [6]: 14.4% | viability, T/C [7]: 22.7% | viability, T/C [8]: 16.1% | viability, T/C [9]: 15.6% | viability, T/C [10]: 21.5% | viability, T/C [11]: 17.8% | viability, T/C [12]: 13.8% | viability, T/C [13]: 30.5% | viability, T/C [14]: 19.5% | viability, T/C [15]: 18.4% | viability, T/C [16]: 16.1% | viability, T/C [17]: 20.2% | viability, T/C [18]: 23.2% | viability, T/C [19]: 43.7% | viability, T/C [20]: 24.6% | viability, T/C [21]: 24% | viability, T/C [22]: 24.2% | viability, T/C [23]: 22.9% | viability, T/C [24]: 21.8% | viability, T/C [25]: 45.5% | viability, T/C [26]: 29.6% | viability, T/C [27]: 30.5% | viability, T/C [28]: 24.8% | viability, T/C [29]: 32.8% | viability, T/C [30]: 28.5% | viability, T/C [31]: 0.17% | viability, T/C [32]: 9.59% | viability, T/C [33]: 26.2% | viability, T/C [34]: 7.48% | viability, T/C [35]: 0.89% | viability, T/C [36]: 0.22%

IC50 (second compound 0.0316 µM): 198 nM | IC50 (second compound 0.1 µM): 163 nM | IC50 (second compound 0.316 µM): 144 nM | IC50 (second compound 1 µM): 140 nM | IC50 (second compound 3.16 µM): 130 nM | IC50 (second compound 10 µM): < 31.6 nM
SMILES: O=C(NO)c1cnc(N2CCN(S(=O)(=O)c3ccc4ccccc4c3)CC2)nc1 + Cc1cnc(CNC(=O)c2c(=O)c3ccc(N4CCCN(C)CC4)nc3n3c2sc2ccccc23)cn1
viability, T/C [1]: 105% | viability, T/C [2]: 81.9% | viability, T/C [3]: 28.5% | viability, T/C [4]: 1.33% | viability, T/C [5]: 0.09% | viability, T/C [6]: 0.11% | viability, T/C [7]: 87.1% | viability, T/C [8]: 68.6% | viability, T/C [9]: 24.8% | viability, T/C [10]: 1.02% | viability, T/C [11]: 0.59% | viability, T/C [12]: 0.1% | viability, T/C [13]: 67.4% | viability, T/C [14]: 61.9% | viability, T/C [15]: 23.6% | viability, T/C [16]: 0.34% | viability, T/C [17]: 0.11% | viability, T/C [18]: 0.12% | viability, T/C [19]: 59.5% | viability, T/C [20]: 64.1% | viability, T/C [21]: 21.8% | viability, T/C [22]: 0.41% | viability, T/C [23]: 0.09% | viability, T/C [24]: 0.13% | viability, T/C [25]: 67.9% | viability, T/C [26]: 60.9% | viability, T/C [27]: 13.3% | viability, T/C [28]: 0.48% | viability, T/C [29]: 0.95% | viability, T/C [30]: 0.53% | viability, T/C [31]: 0.19% | viability, T/C [32]: 21.1% | viability, T/C [33]: 0.26% | viability, T/C [34]: 0.2% | viability, T/C [35]: 0.19% | viability, T/C [36]: 0.19%

IC50 (second compound 0.0316 µM): 1640 nM | IC50 (second compound 0.1 µM): 2200 nM | IC50 (second compound 0.316 µM): > 10000 nM | IC50 (second compound 1 µM): > 10000 nM | IC50 (second compound 3.16 µM): > 10000 nM | IC50 (second compound 10 µM): < 31.6 nM
SMILES: O=c1[nH]cc(F)c(=O)[nH]1 + Cc1cnc(CNC(=O)c2c(=O)c3ccc(N4CCCN(C)CC4)nc3n3c2sc2ccccc23)cn1
viability, T/C [1]: 103% | viability, T/C [2]: 92.6% | viability, T/C [3]: 98.9% | viability, T/C [4]: 59.6% | viability, T/C [5]: 33.9% | viability, T/C [6]: 40.7% | viability, T/C [7]: 89.7% | viability, T/C [8]: 90.1% | viability, T/C [9]: 78.6% | viability, T/C [10]: 66.3% | viability, T/C [11]: 37.9% | viability, T/C [12]: 44.8% | viability, T/C [13]: 73.8% | viability, T/C [14]: 84.2% | viability, T/C [15]: 78.1% | viability, T/C [16]: 60.2% | viability, T/C [17]: 46.5% | viability, T/C [18]: 53.8% | viability, T/C [19]: 66.8% | viability, T/C [20]: 67.2% | viability, T/C [21]: 79.4% | viability, T/C [22]: 60.7% | viability, T/C [23]: 50.1% | viability, T/C [24]: 52.3% | viability, T/C [25]: 62.1% | viability, T/C [26]: 64.4% | viability, T/C [27]: 64.2% | viability, T/C [28]: 57.3% | viability, T/C [29]: 59.3% | viability, T/C [30]: 53.9% | viability, T/C [31]: 0.72% | viability, T/C [32]: 17.2% | viability, T/C [33]: 52.7% | viability, T/C [34]: 48% | viability, T/C [35]: 18.3% | viability, T/C [36]: 0.22%
